According to patent EP0377642B1, “HERBICIDES FOR WEED CONTROL IN RICE” (E.I. DU PONT DE NEMOURS AND COMPANY, priority 1987, dated 1989):
Read-outs that look alike come from different tables or passages of the source.

Columns and labels:
Format in all cases: in vivo
Ludwigia linifolia = assay: Herbicidal efficacy with Bensulfuron methyl and 2,4-D in Thailand (Table 20); conditions: 4 GAI/HA; 14 days after treatment
Source text: (§1) Methyl 2-[[[[(4-methoxy-6-methyl-1,3,5-triazin-2-yl)amino]carbonyl]amino]sulfonyl]benzoate (Compound 1) and mixtures thereof with other compounds were applied as a spray (using a hand sprayer) to rice (either transplanted or direct seeded) in several rice growing areas in Southeast Asia and in the U.S. Tables 1-28 contain the results of these tests and clearly exemplify the utility of this invention. The details of each application are included in the appropriate table. [drawing 2]

FIMBRISTYLIS MILIACEA [1] = assay: as above; conditions: 4 GAI/HA; 14 days after treatment
Source text: as §1

Sphenoclea zeylanica [2] = assay: as above; conditions: 4 GAI/HA; 14 days after treatment
Source text: as §1

rice [3] = assay: as above; conditions: 4 GAI/HA; 14 days after treatment
Source text: as §1

Cuperus iria = assay: as above; conditions: 4 GAI/HA; 14 days after treatment
Source text: as §1

rice [4] = assay: Effects in combination with Bensulfuron Methyl and Thiobencarb or Pretilachlor on rice growth (Table 23); conditions: rate 2 g ai/ha; var. Koshihikari, applied 7 days after transplanting, rated 21 days after application
Source text: as §1

WEED [5] = assay: Effects in combination with Bensulfuron Methyl and Thiobencarb or Pretilachlor on weed control (Table 25); conditions: rate 2 g ai/ha, scale 0 to 10, treated at 2.0 leaf stage, evaluated four weeks later
Source text: as §1

Cyperus iria [6] = assay: Field test applied at 18 DAS in direct seeded rice (Table 12); conditions: 4 GM.A.I./HA, scale 0-10
Source text: as §1

FIMBRISTYLIS MILIACEA [7] = assay: as above; conditions: 4 GM.A.I./HA, scale 0-10
Source text: as §1

Sphenoclea zeylanica [8] = assay: as above; conditions: 4 GM.A.I./HA, scale 0-10
Source text: as §1

Jussiaea linifolia = assay: as above; conditions: 4 GM.A.I./HA, scale 0-10
Source text: as §1

direct seeded rice [9] = assay: Field test applied 7 DAS in direct seeded rice in the Philippines, phytotoxicity (Table 14); conditions: 30 DAA
Source text: as §1

direct seeded rice [10] = conditions: 4 GM.A.I./HA; for PHYTO at 2WAA: scale 0-10
Source text: as §1

WEED [11] = assay: Effects in combination with Bensulfuron Methyl and Thiobencarb or Pretilachlor on weed control (Table 24); conditions: rate 2 g ai/ha, scale 0 to 10, treated at 1.0 leaf stage, evaluated four weeks later
Source text: as §1

Cyperus iria [12] = assay: Field test applied at 25 DAS in direct seeded rice (Table 13); conditions: 4 GM.A.I./HA, scale 0-10
Source text: as §1

Sphenoclea zeylanica [13] = assay: as above; conditions: 4 GM.A.I./HA, scale 0-10
Source text: as §1

Cyperus difformis [14] = assay: Herbicidal efficacy with Bensulfuron methyl and 2,4-D in Thailand (Table 18); conditions: 4 GAI/HA; 13 days after treatment
Source text: as §1

Sphenoclea zeylanica [15] = assay: as above; conditions: 4 GAI/HA; 13 days after treatment
Source text: as §1

rice [16] = assay: as above; conditions: 4 GAI/HA; 13 days after treatment
Source text: as §1

Cuperus difformis = assay: Herbicidal efficacy with Bensulfuron methyl and 2,4-D in Thailand (Table 19); conditions: 4 GAI/HA; 13 days after treatment
Source text: as §1

Sphenoclea zeylanica [17] = assay: as above; conditions: 4 GAI/HA; 13 days after treatment
Source text: as §1

rice [18] = assay: as above; conditions: 4 GAI/HA; 13 days after treatment
Source text: as §1

Cyperus iria [19] = assay: Field test with Bensulfuron methyl in direct seeded rice (Table 10); conditions: 10 = complete control
Source text: as §1

Marsilea crenata = assay: as above; conditions: 10 = complete control
Source text: as §1

Sphenoclea zeylanica [20] = assay: as above; conditions: 10 = complete control
Source text: as §1

direct seeded rice [21] = assay: Field test with Bensulfuron methyl in direct seeded rice, yield (Table 10)
Source text: as §1

[22] = system: Barnyardgrass (Echinochloa crus-galli); assay: Field test applied 7 DAS in direct seeded rice in the Philippines, cover (Table 14); conditions: 47 DAA
Source text: as §1

SEDGE = assay: as above; conditions: 47 DAA
Source text: as §1

WEED [23] = assay: Field test applied 7 DAS in direct seeded rice in the Philippines, weed cover (Table 14); conditions: 47 DAA
Source text: as §1

Cyperus difformis [24] = assay: Field test applied at 7 DAS in direct seeded rice (Table 11); conditions: 4 GM.A.I./HA, scale 0-10
Source text: as §1

Sphenoclea zeylanica [25] = assay: as above; conditions: 4 GM.A.I./HA, scale 0-10
Source text: as §1

COC(=O)c1ccccc1S(=O)(=O)NC(=O)Nc1nc(C)nc(OC)n1 [Compound 1, Methyl 2-[[[[(4-methoxy-6-methyl-1,3,5-triazin-2-yl)amino]carbonyl]amino]sulfonyl]benzoate]
% CONTROL OR INJURY LL (Ludwigia linifolia): 67% | % CONTROL OR INJURY FM (FIMBRISTYLIS MILIACEA [1]): 0% | % CONTROL OR INJURY SZ (Sphenoclea zeylanica [2]): 60% | % CONTROL OR INJURY RICE (rice [3]): 0% | % CONTROL OR INJURY CI (Cuperus iria): 0% | CROP TOLERANCE DW (Dry weight relative to untreated check) (rice [4]): 73% | CROP TOLERANCE PH (Plant height relative to untreated check) (rice [4]): 86% | CROP TOLERANCE VA (Visual crop injury) (rice [4]): 3% | WEED CONTROL RATINGS CD (WEED [5]; Cyperus difformis): 7 | WEED CONTROL RATINGS CS (WEED [5]; Cyperus serotinus): 0 | WEED CONTROL RATINGS EO (WEED [5]; Echinochloa oryzicola): 1 | WEED CONTROL RATINGS BL (WEED [5]; Lindernia pyxidaria): 10 | WEED CONTROL RATINGS MV (WEED [5]; Monochoria vaginalis): 10 | WEED CONTROL RATINGS SP (WEED [5]; Sagittaria pygmaea): 8 | WEED CONTROL RATINGS SJ (WEED [5]; Scirpus juncoides): 6 | WEED CONTROL at 6 WAA CI (Cyperus iria [6]): 0.33 | WEED CONTROL at 6 WAA FM (FIMBRISTYLIS MILIACEA [7]): 0 | WEED CONTROL at 6 WAA SZ (Sphenoclea zeylanica [8]): 6.33 | WEED CONTROL at 6 WAA JL (Jussiaea linifolia): 7.67 | PHYTO (1-9) (direct seeded rice [9]; 1.65 G AI/HA): 2 | PHYTO (1-9) (direct seeded rice [9]; 2.40 G AI/HA): 2.3 | PHYTO (1-9) (direct seeded rice [9]; 3.33 G AI/HA): 3.3 | YIELD (direct seeded rice [10]; 7 DAS): 4.90 TONS/HA | PHYTO at 2WAA (direct seeded rice [10]; 7 DAS): 0 | YIELD (direct seeded rice [10]; 18 DAS): 4.65 TONS/HA | PHYTO at 2WAA (direct seeded rice [10]; 18 DAS): 0 | YIELD (direct seeded rice [10]; 25 DAS): 5.04 TONS/HA | PHYTO at 2WAA (direct seeded rice [10]; 25 DAS): 0 | WEED CONTROL RATINGS CD (WEED [11]; Cyperus difformis): 10 | WEED CONTROL RATINGS CS (WEED [11]; Cyperus serotinus): 1 | WEED CONTROL RATINGS EO (WEED [11]; Echinochloa oryzicola): 1 | WEED CONTROL RATINGS BL (WEED [11]; Lindernia pyxidaria): 10 | WEED CONTROL RATINGS MV (WEED [11]; Monochoria vaginalis): 10 | WEED CONTROL RATINGS SP (WEED [11]; Sagittaria pygmaea): 8 | WEED CONTROL RATINGS SJ (WEED [11]; Scirpus juncoides): 7 | WEED CONTROL at 6 WAA CI (Cyperus iria [12]): 0 | WEED CONTROL at 6 WAA SZ (Sphenoclea zeylanica [13]): 9.53 | % CONTROL OR INJURY CD (Cyperus difformis [14]): 100% | % CONTROL OR INJURY SZ (Sphenoclea zeylanica [15]): 98% | % CONTROL OR INJURY RICE (rice [16]): 0% | % CONTROL OR INJURY CD (Cuperus difformis): 100% | % CONTROL OR INJURY SZ (Sphenoclea zeylanica [17]): 93% | % CONTROL OR INJURY RICE (rice [18]): 0% | WEEDS CONTROL at 4 WAA CI (Cyperus iria [19]; 2 GAI/HA): 0 | WEEDS CONTROL at 4 WAA CI (Cyperus iria [19]; 4 GAI/HA): 0 | WEEDS CONTROL at 4 WAA MC (Marsilea crenata; 2 GAI/HA): 10 | WEEDS CONTROL at 4 WAA MC (Marsilea crenata; 4 GAI/HA): 10 | WEEDS CONTROL at 4 WAA SZ (Sphenoclea zeylanica [20]; 2 GAI/HA): 7.93 | WEEDS CONTROL at 4 WAA SZ (Sphenoclea zeylanica [20]; 4 GAI/HA): 9.33 | YIELD (direct seeded rice [21]; 2 GAI/HA): 3.62 TONS/HA | YIELD (direct seeded rice [21]; 4 GAI/HA): 3.62 TONS/HA | % BYG COVER ([22]; 1.65 G AI/HA): 26% | % BYG COVER ([22]; 2.40 G AI/HA): 35% | % BYG COVER ([22]; 3.33 G AI/HA): 35% | % SEDGE COVER (SEDGE; 1.65 G AI/HA): 5% | % SEDGE COVER (SEDGE; 2.40 G AI/HA): 6% | % SEDGE COVER (SEDGE; 3.33 G AI/HA): 4% | % WEED COVER (WEED [23]; 1.65 G AI/HA): 29% | % WEED COVER (WEED [23]; 2.40 G AI/HA): 35% | % WEED COVER (WEED [23]; 3.33 G AI/HA): 35% | WEED CONTROL at 6 WAA CD (Cyperus difformis [24]): 10 | WEED CONTROL at 6 WAA SZ (Sphenoclea zeylanica [25]): 10
